Results: patent US7182884B2, “Bio-liquid crystal polymer and shaped material using same” (Toyoda Gosei Co., Ltd., priority 2003, dated 2007)

Assay: solubility of the bio-liquid crystal polymer in solvents
Assay type: physicochemical
Design: key: +a: soluble only when heated; +: dissolved; −: not dissolved

solubility (solvent DMF): +
solubility (solvent DMSO): +
solubility (solvent NMP): +
solubility (solvent THF): +
solubility (solvent acetone): +
solubility (solvent acetonitrile): +
solubility (solvent chloroform): −
solubility (solvent ethanol): +
solubility (solvent hexane): −
solubility (solvent methanol): +
solubility (solvent pentafluorophenol): +
solubility (solvent toluene): −
solubility (solvent water): ^+a
SMILES: O=C(O)/C=C/c1ccc(O)cc1 [4HCA, 4-hydroxycinnamic acid]
